# US20150374673A1, “Combination Therapy for the Treatment of Nosocomial Pneumonia” (priority 2013, published 2015)
# Where two headings read alike, the source gives them in different places.
# Assays:
# Format in all cases: cell-based
# S. aureus = test: Initial MIC, microbroth dilution (CLSI), avibactam 4 mg/L; details: Staphylococcus aureus, read-out: MIC
# Source text: (§1) All MIC determinations including those performed in the checkerboard assay were done in cation-adjusted Mueller-Hinton broth (purchased from Becton Dickinson, Oxford UK). […]
# E. cloacae [1] = test: as above; details: Enterobacter cloacae
# Source text: as §1
# E. faecalis = test: as above
# Source text: as §1
# E. coli [2] = test: as above; details: Escherichia coli, read-out: MIC
# Source text: as §1
# [3] = test system: all isolates (Enterobacteriaceae, P. aeruginosa, S. aureus, E. faecalis); test: Checkerboard assay, mean FICI over all isolates
# Procedure: (§2) All MIC determinations including those performed in the checkerboard assay were done in cation-adjusted Mueller-Hinton broth (purchased from Becton Dickinson, Oxford UK).
# (§3) Initial MIC data were determined by microbroth dilution methods as recommended by CLSI (2012b). Checkerboards were made in accordance with the method given by Pillai et. al., ? Antimicrobial Combinations in Antibiotics, LABORATORY MEDICINE (Lorian Ed., 3rd Ed. (2003)) p. 365-440 as per standard microbroth dilution tests but with agents in combination. […] A final avibactam concentration of 4 mg/L was used throughout the study. Antibacterial agents were combined into microtitre plates using the Evolution III liquid handling system.
# (§4) Checkerboard plates were inoculated and incubated in accordance with CLSI guidelines (2012b) at 35±2° C. in ambient air for 16-20 h. MICs were recorded the following day as the lowest concentration or combination of concentrations required to inhibit all visible growth. From the MIC data, FICIs were calculated for each checkerboard according to the method of Meletiadis et. al., Defining Fractional Inhibitory Concentration Index Cutoffs for Additive Interactions Based on Self-Drug Additive Combinations, Monte Carlo Simulation Analysis and in vitro-in vivo Correlation Data for Antifungal Drug Combinations Against Aspergillus fumigatus, AAC 54:602-09 (2010).
# (§5) FICI=FICA+FICB=(CA/MICA)+(CB/MICB)
# (§6) As each checkerboard gives a number of FICI values, an arithmetic mean is calculated from all values to give the mean FICI for two agents combined against one isolate. Mean FICIs were interpreted by the following criteria given by Odds (2003) which are now the accepted criteria by most journals: […]
# E. cloacae [4] = test: Checkerboard assay, mean FICI
# Procedure: as §2, §3, §4, §5, §6
# E. coli [5] = test: Checkerboard assay, mean FICI
# Procedure: as §2, §3, §4, §5, §6
# P. aeruginosa = test: Checkerboard assay, mean FICI
# Procedure: as §2, §3, §4, §5, §6
# [6] = with Col, Gram-negative isolates
# [7] = with Lzd, Gram-positive isolates
# [8] = with Van, Gram-positive isolates
compound,measurement,setting,value
"CC(C)(O/N=C(\C(=O)N[C@@H]1C(=O)N2C(C(=O)[O-])=C(C[n+]3ccccc3)CS[C@H]12)c1csc(N)n1)C(=O)O [ceftazidime, (6R,7R)-7-[[(2Z)-2-(2-amino-1,3-thiazol-4-yl)-2-(1-hydroxy-2-methyl-1-oxopropan-2-yl)oxyiminoacetyl]amino]-8-oxo-3-(pyridin-1-ium-1-ylmethyl)-5-thia-1-azabicyclo[4.2.0]oct-2-ene-2-carboxylate pentahydrate]",MIC,S. aureus; isolate 22 S. aureus Basal MICs,8 mg/L
same,MIC,"S. aureus; isolate 23 S. aureus Basal MICs, Penicillinase+",16 mg/L
same,MIC,"S. aureus; isolate 24 S. aureus Basal MICs, Penicillinase+",8 mg/L
same,MIC,"E. cloacae [1]; isolate 1 E. cloacae Basal MICs, read-out: MIC",0.12 mg/L
same,MIC,E. cloacae [1]; isolate 2 E. cloacae Derepressed AmpC,256 mg/L
same,MIC,E. cloacae [1]; isolate 3 E. cloacae Derepressed AmpC,128 mg/L
same,MIC,E. faecalis; Enterococcus faecalis,256 mg/L
same,MIC,"E. faecalis; Enterococcus faecalis, isolate 25 E. faecalis Basal MICs, read-out: MIC",> 512 mg/L
same,MIC,E. faecalis; isolate 27 E. faecalis Basal MICs,256 mg/L
same,MIC,E. coli [2]; isolate 5 E. coli CTX-M-15,64 mg/L
same,MIC,E. coli [2]; isolate 6 E. coli TEM-4,8 mg/L
same,MIC,E. coli [2]; isolate 7 E. coli SHV-12,16 mg/L
same,MIC,E. coli [2]; isolate 8 E. coli SHV-2,1 mg/L
same,"interaction, synergistic or antagonistic, with any other antibacterial agent","[3]; tobramycin, levofloxacin, vancomycin, linezolid, tigecycline, colistin",No interaction
same,Mean FICI range high,[3]; [6],1.66
same,Mean FICI range low,[3]; [6],0.85
same,Mean FICI range high,"[3]; with Lev, all isolates",1.33
same,Mean FICI range low,"[3]; with Lev, all isolates",0.78
same,Mean FICI range high,[3]; [7],1.64
same,Mean FICI range low,[3]; [7],0.99
same,Mean FICI range high,"[3]; with Tig, all isolates",1.99
same,Mean FICI range low,"[3]; with Tig, all isolates",0.73
same,Mean FICI range high,"[3]; with Tob, all isolates",1.60
same,Mean FICI range low,"[3]; with Tob, all isolates",0.64
same,Mean FICI range high,[3]; [8],1.63
same,Mean FICI range low,[3]; [8],0.99
same,Mean FICI,"E. cloacae [4]; with Col, isolate 2 E. cloacae Derepressed AmpC",1.54
same,Mean FICI,"E. cloacae [4]; with Col, isolate 3 E. cloacae Derepressed AmpC",1.12
same,Mean FICI,"E. cloacae [4]; with Lev, isolate 2 E. cloacae Derepressed AmpC",0.99
same,Mean FICI,"E. cloacae [4]; with Lev, isolate 3 E. cloacae Derepressed AmpC",0.81
same,Mean FICI,"E. cloacae [4]; with Tig, isolate 2 E. cloacae Derepressed AmpC",0.93
same,Mean FICI,"E. cloacae [4]; with Tig, isolate 3 E. cloacae Derepressed AmpC",1.05
same,Mean FICI,"E. cloacae [4]; with Tob, isolate 3 E. cloacae Derepressed AmpC",0.73
same,Mean FICI,"E. coli [5]; with Col, isolate 4 E. coli Basal MICs",1.35
same,Mean FICI,"E. coli [5]; with Col, isolate 5 E. coli CTX-M-15",1.23
same,Mean FICI,"E. coli [5]; with Col, isolate 6 E. coli TEM-4",1.26
same,Mean FICI,"E. coli [5]; with Col, isolate 7 E. coli SHV-12",1.66
same,Mean FICI,"E. coli [5]; with Col, isolate 8 E. coli SHV-2",1.54
same,Mean FICI,"E. coli [5]; with Lev, isolate 5 E. coli CTX-M-15",1.05
same,Mean FICI,"E. coli [5]; with Lev, isolate 6 E. coli TEM-4",1.05
same,Mean FICI,"E. coli [5]; with Lev, isolate 7 E. coli SHV-12",1.18
same,Mean FICI,"E. coli [5]; with Lev, isolate 8 E. coli SHV-2",1.11
same,Mean FICI,"E. coli [5]; with Tig, isolate 4 E. coli Basal MICs",1.41
same,Mean FICI,"E. coli [5]; with Tig, isolate 5 E. coli CTX-M-15",1.12
same,Mean FICI,"E. coli [5]; with Tig, isolate 6 E. coli TEM-4",1.27
same,Mean FICI,"E. coli [5]; with Tig, isolate 7 E. coli SHV-12",0.95
same,Mean FICI,"E. coli [5]; with Tig, isolate 8 E. coli SHV-2",1.10
same,Mean FICI,"E. coli [5]; with Tob, isolate 5 E. coli CTX-M-15",1.05
same,Mean FICI,"E. coli [5]; with Tob, isolate 6 E. coli TEM-4",0.99
same,Mean FICI,"E. coli [5]; with Tob, isolate 7 E. coli SHV-12",1.19
same,Mean FICI,"E. coli [5]; with Tob, isolate 8 E. coli SHV-2",0.91
same,Mean FICI,"P. aeruginosa; with Col, isolate 16 P. aeruginosa Basal MICs",1.24
same,Mean FICI,"P. aeruginosa; with Col, isolate 17 P. aeruginosa Derepressed AmpC",1.21
same,Mean FICI,"P. aeruginosa; with Col, isolate 18 P. aeruginosa Derepressed AmpC",1.23
same,Mean FICI,"P. aeruginosa; with Col, isolate 19 P. aeruginosa PER",1.43
same,Mean FICI,"P. aeruginosa; with Col, isolate 20 P. aeruginosa KPC-2",1.21
same,Mean FICI,"P. aeruginosa; with Col, isolate 21 P. aeruginosa KPC-2",1.34
same,Mean FICI,"P. aeruginosa; with Lev, isolate 16 P. aeruginosa Basal MICs",1.19
same,Mean FICI,"P. aeruginosa; with Lev, isolate 17 P. aeruginosa Derepressed AmpC",1.10
same,Mean FICI,"P. aeruginosa; with Lev, isolate 18 P. aeruginosa Derepressed AmpC",1.21
same,Mean FICI,"P. aeruginosa; with Lev, isolate 19 P. aeruginosa PER",0.99
same,Mean FICI,"P. aeruginosa; with Lev, isolate 20 P. aeruginosa KPC-2",1.13
same,Mean FICI,"P. aeruginosa; with Lev, isolate 21 P. aeruginosa KPC-2",1.12
same,Mean FICI,"P. aeruginosa; with Tig, isolate 16 P. aeruginosa Basal MICs",1.05
same,Mean FICI,"P. aeruginosa; with Tig, isolate 17 P. aeruginosa Derepressed AmpC",1.23
same,Mean FICI,"P. aeruginosa; with Tig, isolate 18 P. aeruginosa Derepressed AmpC",1.15
same,Mean FICI,"P. aeruginosa; with Tig, isolate 19 P. aeruginosa PER",1.13
same,Mean FICI,"P. aeruginosa; with Tig, isolate 20 P. aeruginosa KPC-2",1.40
same,Mean FICI,"P. aeruginosa; with Tig, isolate 21 P. aeruginosa KPC-2",1.23
same,Mean FICI,"P. aeruginosa; with Tob, isolate 16 P. aeruginosa Basal MICs",1.11
same,Mean FICI,"P. aeruginosa; with Tob, isolate 17 P. aeruginosa Derepressed AmpC",1.05
same,Mean FICI,"P. aeruginosa; with Tob, isolate 18 P. aeruginosa Derepressed AmpC",0.89
same,Mean FICI,"P. aeruginosa; with Tob, isolate 19 P. aeruginosa PER",0.70
same,Mean FICI,"P. aeruginosa; with Tob, isolate 20 P. aeruginosa KPC-2",0.97
same,Mean FICI,"P. aeruginosa; with Tob, isolate 21 P. aeruginosa KPC-2",0.97
